Data from patent publication US20110009342A1, “USES OF PDCD5 POLYPEPTIDE FOR TUMOR CHEMOTHERAPY AND ORGAN PROTECTION” (priority 2008, published 2011).

Legend:
[1] = tested on: K562 cells; test: clonogenic assay of agarose, IDR; format: cell-based; details: Homo sapiens, K562, 336 h; IDR 35 ng/mL; PDCD5 15-60 μg/mL where combined; 14 days; read-out: rate of clonogenic inhibition
Description: Clonogenic assay of agarose: Cell concentration was adjusted to 2.5×10^5 cell/mL. NS (control group) was prepared by taking 0.01 mL single-cell suspension, 0.5 mL 1% agarose, and 0.5 mL 2×RPMI 1640 medium containing 20% FCS, to bring the culture system to 1.0 mL. Test groups were prepared by taking 0.01 mL single-cell suspension and 0.5 mL 1% agarose, and taking IDR and PDCD5 diluted with 2×RPMI 1640 medium containing 20% FCS to an appropriated volume (having a final concentration of 35 ng/mL for IDR, and a final concentration of 15 μg/mL, 30 μg/mL, or 60 μg/mL for PDCD5 in each respective test group) and further diluted by adding 2×RPMI 1640 medium containing 20% FCS to 0.5 mL, and bringing the culture system to 1.0 mL. The culture system was added to 24-well plates, with 1 mL per well, and triplicate wells for each group. The plates were incubated in a CO2 incubator for 14 days until colonies formed. The clonogenic number was counted by microscope. A colony with more than 30 cells was counted as one positive colony.

[2] = tested on: mouse livers; test: HE staining of liver paraffin sections of treated K562 xenograft mice; format: in vivo, BALB/c nu/nu mice
Description: (§1) Methods: BALB/c nu/nu female mice (6-8 weeks of age) were injected intraperitoneally with cyclophosphamide (CTX) (Jiangsu Hengrui Medicine Co., Ltd.), 2 mg/day per mouse for two days. One day after the second cyclophosphamide injection, 1.5×10^7 of K562 cells were injected subcutaneously into the single armpit of each of the mice. The mice bearing K562 cell xenografts were divided randomly into nine groups (n=6, i.e., six mice in each group) and each of the mice was i.p. treated, respectively, with normal saline, PDCD5, IDR (Sigma Corporation), and IDR plus PDCD5. […] At the end of the experiment, mice were killed. The mice were the same batch of that of Example 6. The excised liver of mice after treatment were fixed in 10% neutrally buffered formalin and then embedded in paraffin after dehydration. The paraffin embedding was cut and paraffin sections after HE staining were used to observe the necrosis of experimental mouse livers. Meanwhile, paraffin sections after Tunel (Roche Inc.) staining were used to observe the apoptosis of experimental mouse livers, and then the number of apoptotic cells was counted in five high-power microscope field for statistical analysis.

[3] = tested on: K562 cell xenografts; test: K562 cell xenografts in nude mice, IDR; format: in vivo, BALB/c nude mice; details: IDR 70 μg
Description: Methods: BALB/c nude female mice (6-8 weeks of age) were used, and the mice were pretreated by i.p. injections of cyclophosphamide (Jiangsu Hengrui Medicine Co., Ltd.) once daily at a dose of 2 mg per mouse for two consecutive days. After two days of the cyclophosphamide injection, 1.5×10^7 K562 cells were injected subcutaneously into the single flanks of the mouse. The mice bearing K562 cell xenografts were divided randomly into five groups: Normal saline, irrelevant protein, rhPDCD5, IDR (idarubicin, Sigma Company), and IDR plus rhPDCD5. IDR treatments were given every other day i.p. The longest diameter and shortest diameter of tumors were measured by vernier caliper at the beginning of treatment and during the treatment. […] At the end of the experiment, the mice were killed and tumor masses were dissected and then weighed. […] Tumor volume was calculated using the following formula: πls^2/6, where 1=long diameter and s=short diameter.

[4] = tested on: K562 cells; test: FITC/Annexin-V apoptosis by flow cytometry, IDR; format: cell-based; details: IDR 56 ng/mL; PDCD5 30 μg/mL where combined; 24 hours
Description: Methods: Cell staining with FITC/Annexin-V and cell apoptosis in vitro detection by flow cytometry: K562 cells (ATCC) were maintained in RPMI 1640 (Life Technologies, USA) supplemented with 10% FBS (Hyclone, USA), and were plated in 24-well culture dishes to a density of 2×10^5 cells/mL. rhPDCD5 protein was added with a final concentration of 7.5 μg/mL, 15 μg/mL and 30 μg/mL, respectively, in each well. Chemotherapeutic drug IDR was then added with a final concentration of 56 ng/mL and RPMI 1640 with 10% FBS was added to make the system to 1 mL. After 24 hours of co-culture, the cells were stained with FITC/Annexin-V (Baosai company) and apoptosis was detected by flow cytometry.

[5] = tested on: mouse livers; test: Tunel staining of liver paraffin sections of treated K562 xenograft mice; format: in vivo, BALB/c nu/nu mice; details: five high power microscope fields
Description: Methods: BALB/c nu/nu female mice (6-8 weeks of age) were injected intraperitoneally with cyclophosphamide (CTX) (Jiangsu Hengrui Medicine Co., Ltd.), 2 mg/day per mouse for two days. One day after the second cyclophosphamide injection, 1.5×10^7 of K562 cells were injected subcutaneously into the single armpit of each of the mice. The mice bearing K562 cell xenografts were divided randomly into nine groups (n=6, i.e., six mice in each group) and each of the mice was i.p. treated, respectively, with normal saline, PDCD5, IDR (Sigma Corporation), and IDR plus PDCD5. Normal saline, PDCD5 (200 μg, 400 μg, or 800 μg, i.e., 10 mg/kg, 20 mg/kg, or 40 mg/kg, respectively), IDR (25 μg, i.e., 1.25 mg/kg) and IDR (25 μg, i.e., 1.25 mg/kg) plus PDCD5 (200 μg, 400 μg, or 800 μg, i.e., 10 mg/kg, 20 mg/kg, or 40 mg/kg, respectively) were used for intraperitoneal injection every other day for a total of five treatments. […] At the end of the experiment, mice were killed.
The excised liver of mice after treatment were fixed in 10% neutrally buffered formalin and then embedded in paraffin after dehydration. […] Meanwhile, paraffin sections after Tunel (Roche Inc.) staining were used to observe the apoptosis of experimental mouse livers, and then the number of apoptotic cells was counted in five high-power microscope field for statistical analysis.

[6] = tested on: mice hearts; test: HE staining of heart paraffin sections of treated K562 xenograft mice; format: in vivo, BALB/c nu/nu mice
Description: as §1, with “hearts” for “liver”, “myocardial congestion, hemorrhage, and myofiber degeneration” for “necrosis”, “heart” for “experimental mouse livers. Meanwhile, paraffin sections after Tunel (Roche Inc.) staining were used to observe the apoptosis of experimental mouse livers, and then the number of apoptotic cells was counted”, “mice.” for “five high-power microscope field for statistical analysis.”

[7] = tested on: mouse bone marrow; test: HE staining of bone marrow paraffin sections of treated K562 xenograft mice; format: in vivo, BALB/c nu/nu mice; details: combination compared with IDR alone
Description: Methods: Cyclophosphamide (CTX) (Jiangsu Hengrui Medicine Co., Ltd.) was used for intraperitoneal injection in BALB/c nu/nu female mice (6-8 weeks of age) and injection lasted for two days. One day after the second cyclophosphamide injection, 1.5×10^7 of K562 cells were injected subcutaneously into the single armpit of the mice. The mice bearing K562 cell xenografts were divided randomly into nine groups (n=6, i.e., six mice in each group) and i.p. treated with normal saline, PDCD5, IDR (Sigma Corporation), and IDR plus PDCD5. Normal saline, PDCD5 (200 μg, 400 μg, or 800 μg, i.e., 10 mg/kg, 20 mg/kg, or 40 mg/kg), […]., 1.25 mg/kg) and […]., 1.25 mg/kg) plus PDCD5 (200 μg, 400 μg, or 800 μg, i.e., 10 mg/kg, 20 mg/kg, or 40 mg/kg) were used for intraperitoneal injection and were given every other day for a total of five treatments. […] At the end of the experiment, mice were killed. The mice were the same batch of that in Example 6. The excised bone of mice after treatment were fixed in 10% neutrally buffered formalin and then embedded in paraffin after dehydration. The paraffin embedding was cut and paraffin sections after HE staining were used to count the number of nucleated cells of each group in mouse bone marrow paraffin sections.

[8] = no PDCD5, Imatinib 1.2 mg oral or IDR 25 μg i.p., n=6

`CC(=O)[C@]1(O)Cc2c(O)c3c(c(O)c2[C@@H](O[C@H]2C[C@H](N)[C@H](O)[C@H](C)O2)C1)C(=O)c1ccccc1C3=O` [IDR, idarubicin] was tested, and the inhibition at 0.035 µg/mL [1] was 35.5%, the “sinusoidal expansion, congestive hemorrhage and necrosis of liver cells surrounding sinusoid (in words)” value ([2]; HE staining) was “significant” and the “Sinusoidal expansion, congestive hemorrhage and necrosis of liver cells surrounding sinusoid: mice graded +” value [2, 8] was 3 number of mice. The “Sinusoidal expansion, congestive hemorrhage and necrosis of liver cells surrounding sinusoid: mice graded ++” value [2, 8] was 3 number of mice, the “Sinusoidal expansion, congestive hemorrhage and necrosis of liver cells surrounding sinusoid: mice graded +/−” value [2, 8] was 0 number of mice and the “Sinusoidal expansion, congestive hemorrhage and necrosis of liver cells surrounding sinusoid: mice graded −” value [2, 8] was 0 number of mice. For the same compound, the tumor inhibitory rate ([3]; PDCD5 local (intratumoral) injection, 60 μg where combined) was 60.27%, the tumor inhibitory rate ([3]; treatment started at average tumor volume 57.7 mm^3, PDCD5 i.p. 800 μg where combined) was 62.79% and the cell apoptosis rate [4] was 22.57%. The “number of apoptotic cells in mice liver, IDR alone vs IDR combined with PDCD5” value [5] was “significantly higher”, the “myocardial hemorrhage and congestion, and myofiber fracture/degeneration (in words)” value ([6]; HE staining) was “significant” and the “Myocardial hemorrhage and congestion: mice graded +” value [6, 8] was 3 number of mice. For the same compound, the “Myocardial hemorrhage and congestion: mice graded ++” value [6, 8] was 3 number of mice, the “Myocardial hemorrhage and congestion: mice graded −” value [6, 8] was 0 number of mice and the “Myofiber degeneration: mice graded +” value [6, 8] was 3 number of mice. For the same compound, the “Myofiber degeneration: mice graded −” value [6, 8] was 3 number of mice and the “number of mouse bone marrow nucleated cells” value [7] was “decreased”.
